According to US20190231788A1, “COMPOSITIONS COMPRISING TIMOLOL AND AN ANTI-INFLAMMATORY AGENT” (Almirall, S.A., priority 2016, published 2019):

Tests used:
TPA-induced ear oedema [1] = experiment: TPA-induced ear oedema model in Balb/c mice, single topical application; assay type: in vivo
Description: Evaluation of the Anti-Oedema Effect of Ivermectin, Praziquantel and Timolol and Combinations of Timolol with Ivermectin or Praziquantel after a Single Topical Application in the TPA-Induced Ear Oedema Model in Balb/c Mice.
The oedema is induced by means of a single application to the right ear of the mouse of 10 μl of a solution of TPA (phorbol 12-myristate 13-acetate) in acetone at 0.01%. The test compounds are diluted in acetone and applied with TPA. The weight of the mouse ears is measured at T+6 h and the weight of the left ear is subtracted from the one of the right ear.
Treatments: • A. Ivermectin is applied at a concentration of 0.1-0.3-1%, • B. Praziquantel is applied at a concentration at 0.3-1-3% • C. Timolol is applied at a concentration at 0.2-0.5-1%.
For combination studies Ivermectin alone is applied at a concentration of 0.3%, praziquantel alone is applied at 1% and timolol alone is applied at 0.5%. These same strengths are used in the combinations.
Each graph represents the average weight of the ear oedema of four different groups of treated animals. Each group includes 6 animals. Numbers above the bars indicate the percentage inhibition of the corresponding group of treated animals vs the control group.

TPA-induced ear oedema [2] = conditions: topical 0.2%; mice; cited from earlier work
[3] = dose-response study (FIGS. A-C), 0.3% in acetone applied with TPA, ear weight at T+6 h
[4] = dose-response study (FIGS. A-C), 1% in acetone applied with TPA, ear weight at T+6 h

O=C(C1CCCCC1)N1CC(=O)N2CCc3ccccc3C2C1 (racemic) [praziquantel, (RS)-2-(Cyclohexylcarbonyl)-1,2,3,6,7,11b-hexahydro-4H-pyrazino[2,1-a]isoquinolin-4-one]
inhibition of ear oedema vs control group (TPA-induced ear oedema [1]; combination study FIG. 2, praziquantel alone at 1%, T+6 h): 42% | inhibition of ear oedema vs control group (TPA-induced ear oedema [1]; [3]): 15% | inhibition of ear oedema vs control group (TPA-induced ear oedema [1]; [4]): 48% | inhibition of ear oedema vs control group (TPA-induced ear oedema [1]; dose-response study (FIGS. A-C), 3% in acetone applied with TPA, ear weight at T+6 h): 91%

Brc1c(NC2=NCCN2)ccc2nccnc12 [brimonidine]
inhibition of TPA-induced ear oedema (TPA-induced ear oedema [2]): 50%

CC[C@H](C)[C@H]1O[C@]2(CC[C@@H]1C)C[C@@H]1C[C@@H](C/C=C(\C)C(O[C@H]3C[C@H](OC)C(O[C@H]4C[C@H](OC)[C@@H](O)[C@H](C)O4)[C@H](C)O3)[C@@H](C)/C=C/C=C3\CO[C@@H]4[C@H](O)C(C)=C[C@@H](C(=O)O1)[C@]34O)O2 (some centres unmarked) [ivermectin, 22,23-dihydroavermectin B1a]
inhibition of ear oedema vs control group (TPA-induced ear oedema [1]; combination study FIG. 1, ivermectin alone at 0.3%, T+6 h): 37% | inhibition of ear oedema vs control group (TPA-induced ear oedema [1]; dose-response study (FIGS. A-C), 0.1% in acetone applied with TPA, ear weight at T+6 h): 20% | inhibition of ear oedema vs control group (TPA-induced ear oedema [1]; [3]): 43% | inhibition of ear oedema vs control group (TPA-induced ear oedema [1]; [4]): 82%

CC(C)(C)NC[C@H](O)COc1nsnc1N1CCOCC1 [timolol, (S)-1-(tert-butylamino)-3-[(4-morpholin-4-yl-1,2,5-thiadiazol-3-yl)oxy]propan-2-ol]
inhibition of ear oedema vs control group (TPA-induced ear oedema [1]; combination study FIG. 1, timolol alone at 0.5%, T+6 h): 30% | inhibition of ear oedema vs control group (TPA-induced ear oedema [1]; combination study FIG. 2, timolol alone at 0.5%, T+6 h): 16% | inhibition of ear oedema vs control group (TPA-induced ear oedema [1]; dose-response study (FIGS. A-C), 0.2% in acetone applied with TPA, ear weight at T+6 h): 6% | inhibition of ear oedema vs control group (TPA-induced ear oedema [1]; dose-response study (FIGS. A-C), 0.5% in acetone applied with TPA, ear weight at T+6 h): 23% | inhibition of ear oedema vs control group (TPA-induced ear oedema [1]; [4]): 14%
